We go through 1 substance from patent US20230082287A1, “METHODS OF TREATING AN INFLAMMATORY OR OBSTRUCTIVE AIRWAY DISEASE USING ANTI-TSLP ANTIBODY” (Novartis AG, priority 2020, published 2023).

Experiment [1] deals with late asthmatic response (LAR). Nature of the experiment: Published allergen challenge LAR data for budesonide/formoterol. Format: in vivo. Conditions: 400/12 μg; calculated from published data. From the text:
Published data from other widely asthma treatment budosenide/formoterol (ICS/LABA, inhaled corticosteroid+long-acting beta agonist) combination was used in a similar fashion to calculate its efficacy and results compared with CSJ117 in Table 10.

In experiment [2] the test system is late asthmatic response (LAR). Conditions: 400/12 μg; J ALLERGY CLIN IMMUNOL VOLUME 119, NUMBER 2, pp 322-327; cited from earlier work.

As to Budesonide/formoterol, in experiment [1], the “E, % [(B-A)/B]*100” value is listed as 80.2% and the “LAR B-A (placebo minus treatment), maximal fall % FEV1” value is reported as 17. Besides, the “LAR Treatment (A), maximal fall % FEV1” value in experiment [2] is on record as 4.2%.
